Consider 14 compounds from patent US4134792A, “Specific binding assay with an enzyme modulator as a labeling substance” (Miles Laboratories, Inc., priority 1976, dated 1979).

pKi: −log10 of the molar value.

One test deals with glutamate dehydrogenase. Details: key: inhibitory or negative effectors are indicated by (-); stimulatory or positive effectors are indicated by (+). The settings on record: beef liver; cited from earlier work.
The next test concerns homoserine dehydrogenase. Details: key: inhibitory or negative effectors are indicated by (-); stimulatory or positive effectors are indicated by (+). The settings on record: R. rubrum; cited from earlier work.
Test [1] has as its system carbonic anhydrase. Kind of test: Competitive binding assay for dinitrophenyl (DNP) derivatives; carbonic anhydrase esterase readout (Example 5). It counts as biochemical, human. As to conditions: for effect on the carbonic anhydrase reaction (in words): Table 4; for effect of antibody to DNP on inhibition (in words): presence of antibody to DNP. On the procedure: (§1) Further dilutions were with water.
as §1
(4) Antibody to Dinitrophenyl (DNP) Reagent - Antisera raised against DNP was chromatographed at 4° C. on a 5 × 70 cm column of Sephadex G-200 (Pharmacia AB, Uppsala, Sweden) with 0.1 M Tris-HCl buffer, pH 8.2, containing 1 M sodium chloride.

In a further test the test system is acetylcholinesterase. The settings on record: cited from earlier work; for inhibition of acetylcholinesterase (in words): effective analogs of listed inhibitors.
In test [2] the test system is carbonic anhydrase. The experiment in a line: Esterase activities of carbonic anhydrase as a function of acetazolamide concentration (Example 2). The format is biochemical, human. The settings on record: for Hydrolysis Rate: pH 7.4, enzyme 0.013 IU.
Test [3] deals with carbonic anhydrase. Kind of test: Direct binding assay for avidin; competitive binding assay for biotin; carbonic anhydrase esterase readout (Example 4). It counts as biochemical, human.
From the text: as §1
The results of reaction mixtures 2 through 9 are presented in graphical form in FIG. 2 of the drawing.

For the compound `N[C@@H](Cc1cc(I)c(Oc2cc(I)c(O)c(I)c2)c(I)c1)C(=O)O` [thyroxine], the “allosteric effector: inhibitory (-) or stimulatory (+)” value (“allosteric effector: inhibitory” below) in the test on glutamate dehydrogenase was “-”.
Take `CC(C)C[C@H](N)C(=O)O` [leucine]: in the test with glutamate dehydrogenase, the “allosteric effector: inhibitory” value was “+”.
For `CSCC[C@H](N)C(=O)O` [L-methionine], in the test on homoserine dehydrogenase, the “allosteric effector: inhibitory” value was “+”.
`NS(=O)(=O)c1nnc(NC(=O)CCCCCNc2ccc([N+](=O)[O-])cc2[N+](=O)[O-])s1` [DNP-Modulator Conjugate, 6-(2,4-Dinitroanilino)-N-(5-sulfonamide-1,3,4-thiadiazo-2-yl) caproamide]: the “Rate of Hydrolysis” value is listed as 0.108 Increase in Absorbance per min at 348 nm with carbonic anhydrase [1] (DNP-modulator conjugate 0.278 μM with antibody to DNP 100 .infin.l/ml, mixture 2); 0.098 Increase in Absorbance per min at 348 nm in the test on carbonic anhydrase [1] (DNP-modulator conjugate 0.278 μM, N-DNP-6-aminocaproate 1.8 μM, antibody to DNP 100 .infin.l/ml, mixture 7); 0.074 Increase in Absorbance per min at 348 nm in the test on carbonic anhydrase [1] (DNP-modulator conjugate 0.278 μM, no antibody, mixture 4). In addition, the “effect on the carbonic anhydrase reaction (in words)” value in the test with carbonic anhydrase [1] was “inhibited the carbonic anhydrase reaction”. Also, in the test on carbonic anhydrase [1], the “effect of antibody to DNP on inhibition (in words)” value is recorded as “degree of inhibition being decreased by the presence of antibody to DNP”.
In the case of `CSCC[C@H](N)C(=O)O` [methionine], the “allosteric effector: inhibitory” value in the test with glutamate dehydrogenase is given as “+”.
On to `C[N+](C)(C)c1ccc(N)cc1` [p-aminophenyl trimethylammonium ion], for which, in the test with acetylcholinesterase, the “inhibition of acetylcholinesterase (in words)” value is reported as “inhibited”.
Take “Avidin: Lyophilized avidin (Sigma Chemical Co., St. Louis, Mo.)”: the “effect of avidin on inhibition by acetazolamide (in words)” value in the test with carbonic anhydrase [2] (Table 1) was “no significant effect on such inhibition”. Besides, the “Hydrolysis Rate” value in the test on carbonic anhydrase [2] (avidin 0.105 units/ml, acetazolamide 0.000 μM) is 0.106 ΔOD348 /min/ml. For the same compound, the “relation of rate of enzymatic hydrolysis to avidin (in words)” value in the test with carbonic anhydrase [3] (constant level of biotin-modulator conjugate, mixtures 2-9) is given as “directly related to the amount of avidin present”.
Take `CN(C(=O)Oc1cccc([N+](C)(C)C)c1)c1ccc(N)cc1` [N-methyl-N-(p-aminophenyl) carbamate ester of m-(trimethylamino) phenol]: the “inhibition of acetylcholinesterase (in words)” value in the test with acetylcholinesterase is “inhibited”.
For orientation: pKi means the negative decadic logarithm of the Ki, by convention in mol/L. Regarding `C[N+](C)(C)c1ccccc1` [phenyl trimethylammonium ion], the negative-log Ki (pKi) at acetylcholinesterase (approximation, competitive inhibitor, read-out: inhibitor constant (Ki)) is ~6.00.
As for `O=C(O)CCCC[C@@H]1SC[C@@H]2NC(=O)N[C@@H]21` [biotin], the “relation of rate of hydrolysis to biotin (in words)” value in the test with carbonic anhydrase [3] (mixtures 8, 10 and 11) is listed as “inversely related to the amount present”.
Take `O=C(O)CCCCCNc1ccc([N+](=O)[O-])cc1[N+](=O)[O-]` [N-DNP-6-aminocaproate]: in the test with carbonic anhydrase [1] (N-DNP-6-aminocaproate 1.8 μM alone, no antibody, mixture 6), the “Rate of Hydrolysis” value is 0.154 Increase in Absorbance per min at 348 nm. Further, the “effect on the carbonic anhydrase reaction (in words)” value in the test with carbonic anhydrase [1] is reported as “no substantial effect on the carbonic anhydrase reaction”. Moreover, the “effect of DNP derivative on inhibition by DNP-modulator conjugate (in words)” value in the test with carbonic anhydrase [1] (mixtures 2 and 7, antibody to DNP present) is listed as “increased inhibition of the carbonic anhydrase reaction by the DNP-modulator conjugate”.
Consider `Nc1nc2c(ncn2[C@@H]2O[C@H](COP(=O)(O)OP(=O)(O)OP(=O)(O)O)[C@@H](O)[C@H]2O)c(=O)[nH]1` [GTP, guanosine triphosphate], for which, in the test on glutamate dehydrogenase, the “allosteric effector: inhibitory” value was “-”.
For the compound `CC(=O)Nc1nnc(S(N)(=O)=O)s1` [Acetazolamide, 2-Acetylamino-1,3,4-thiadiazole-5-sulfonamide], the “inhibition of carbonic anhydrase (in words)” value with carbonic anhydrase [2] (Table 1) is given as “inhibited the enzyme carbonic anhydrase”. Besides, the “Hydrolysis Rate” value with carbonic anhydrase [2] (acetazolamide 0.144 μM with avidin 0.105 units/ml) is 0.089 ΔOD348 /min/ml; in the test on carbonic anhydrase [2] (acetazolamide 0.144 μM, no avidin) it was 0.088 ΔOD348 /min/ml; in the test with carbonic anhydrase [2] (acetazolamide 0.288 μM, no avidin) it was 0.047 ΔOD348 /min/ml. Besides, the “effect on the carbonic anhydrase reaction (in words)” value in the test with carbonic anhydrase [1] is “inhibited the carbonic anhydrase reaction”. In addition, the “Rate of Hydrolysis” value is reported as 0.091 Increase in Absorbance per min at 348 nm in the test with carbonic anhydrase [1] (acetazolamide 0.216 μM with antibody to DNP 100 .infin.l/ml, mixture 3) and 0.088 Increase in Absorbance per min at 348 nm in the test on carbonic anhydrase [1] (acetazolamide 0.216 μM, no antibody, mixture 5). In addition, the “effect of antibody to DNP on inhibition (in words)” value in the test with carbonic anhydrase [1] is “substantially unaffected by the presence of antibody to DNP”.
Regarding `NC(=O)C1=CN([C@@H]2O[C@H](COP(=O)(O)OP(=O)(O)OC[C@H]3O[C@@H](n4cnc5c(N)ncnc54)[C@H](O)[C@@H]3O)[C@@H](O)[C@H]2O)C=CC1` [reduced NAD], in the test on glutamate dehydrogenase, the “allosteric effector: inhibitory” value was “-”.
